Patent US20240132480A1, “INHIBITORS OF MYCOBACTERIUM TUBERCULOSIS LIPOAMIDE DEHYDROGENASE” (Cornell University, priority 2021, published 2024)

What was measured:
Mtb Lpd = Mtb Lpd (Mycobacterium tuberculosis (strain ATCC 25618 / H37Rv), UniProt P9WHH9); format: biochemical; settings: read-out: LPD IC50
[1] = microsomes

Cc1cc(S(=O)(=O)N(C)CC(=O)Nc2ccn3ccnc3c2)c2[nH]ncc2c1 [Example 26]
IC50 (Mtb Lpd): 0.0628 µM
Human Liver Microsome Stability [1]: 154 µL/min/mg

Cc1cc(S(=O)(=O)N2CC[C@H]2C(=O)Nc2ccn(C)c(=O)c2)c2[nH]ncc2c1 [Example 27, (S)-1-((5-methyl-1H-indazol-7-yl)sulfonyl)-N-(1-methyl-2-oxo-1,2-dihydropyridin-4-yl)azetidine-2-carboxamide]
IC50 (Mtb Lpd): 0.0545 µM
Human Liver Microsome Stability [1]: -8 µL/min/mg

COCc1n[nH]c2c(S(=O)(=O)N(C)CC(=O)Nc3ccc(OC)c(C)c3)cc(C)cc12 [Example 28]
IC50 (Mtb Lpd): 3640 µM
Human Liver Microsome Stability [1]: >768 µL/min/mg

Cc1cc(S(=O)(=O)N(C)CC(=O)Nc2ccc3c(c2)OCCO3)c2[nH]ncc2c1 [Example 29]
IC50 (Mtb Lpd): 0.0109 µM
Human Liver Microsome Stability [1]: 76 µL/min/mg

Cc1cc(S(=O)(=O)N(C)CC(=O)Nc2ccc3c(c2)OCCN3C)c2[nH]ncc2c1 [Example 30, 2-((N,5-dimethyl-1H-indazole)-7-sulfonamido)-N-(4-methyl-3,4-dihydro-2H-benzo[b][1,4]oxazin-7-yl)acetamide]
IC50 (Mtb Lpd): 0.00363 µM
Human Liver Microsome Stability [1]: 78 µL/min/mg

Cc1cc(S(=O)(=O)N(C)CC(=O)Nc2ccc3c(c2)N(C)CCO3)c2[nH]ncc2c1 [Example 31]
IC50 (Mtb Lpd): 0.0165 µM
Human Liver Microsome Stability [1]: 91 µL/min/mg

Cc1cc(S(=O)(=O)N(C)CC(=O)Nc2ccc(N3CCOCC3)c(C)c2)c2[nH]ncc2c1 [Example 32]
IC50 (Mtb Lpd): 0.0043 µM
Human Liver Microsome Stability [1]: 234 µL/min/mg

Cc1cc(NC(=O)CN(C)S(=O)(=O)c2cc(C3CC3)cc3cn[nH]c23)ccc1N1CCOCC1 [Example 34]
IC50 (Mtb Lpd): 0.0067 µM
Human Liver Microsome Stability [1]: 203 µL/min/mg

CN(CC(=O)Nc1ccn(C)c(=O)c1)S(=O)(=O)c1cc(C2CC2)cc2cn[nH]c12 [Example 35]
IC50 (Mtb Lpd): 0.152 µM
Human Liver Microsome Stability [1]: 91 µL/min/mg

Cc1cc(S(=O)(=O)N(C)CC(=O)Nc2ccn(C)c(=O)c2)c2[nH]nc(C)c2c1 [Example 36]
IC50 (Mtb Lpd): 0.0657 µM
Human Liver Microsome Stability [1]: -26 µL/min/mg

CN(CC(=O)Nc1ccn(C)c(=O)c1)S(=O)(=O)c1cc(C(F)F)cc2cn[nH]c12 [Example 37]
IC50 (Mtb Lpd): 0.0474 µM
Human Liver Microsome Stability [1]: 22 µL/min/mg

Cc1cc(S(=O)(=O)N2CC[C@H]2C(=O)Nc2ccc3c(c2)OCCO3)c2[nH]ncc2c1 [Example 39]
IC50 (Mtb Lpd): 0.0237 µM
Human Liver Microsome Stability [1]: 76 µL/min/mg

Cc1cc(S(=O)(=O)N2CC[C@H]2C(=O)Nc2ccc3c(c2)OCCN3C)c2[nH]ncc2c1 [Example 40]
IC50 (Mtb Lpd): 0.03 µM
Human Liver Microsome Stability [1]: 78 µL/min/mg

Cc1cc(S(=O)(=O)N2CC[C@H]2C(=O)Nc2ccc3c(c2)N(C)CCO3)c2[nH]ncc2c1 [Example 41]
IC50 (Mtb Lpd): 0.0356 µM
Human Liver Microsome Stability [1]: 197 µL/min/mg

Cc1cc(S(=O)(=O)N(C)CC(=O)Nc2ccc(C3CCCCC3)c(C)c2)c2[nH]c(C)cc2c1 [Example 42]
IC50 (Mtb Lpd): 0.573 µM
Human Liver Microsome Stability [1]: 23 µL/min/mg

Cc1cc(S(=O)(=O)N(C)CC(=O)Nc2ccn(C)c(=O)c2)c2[nH]ncc2c1F [Example 43, 2-((4-fluoro-N,5-dimethyl-1H-indazole)-7-sulfonamido)-N-(1-methyl-2-oxo-1,2-dihydropyridin-4-yl)acetamide]
IC50 (Mtb Lpd): 0.0498 µM
Human Liver Microsome Stability [1]: 42 µL/min/mg

CNCc1n[nH]c2c(S(=O)(=O)N(C)CC(=O)Cc3ccn(C)c(=O)c3)cc(C)cc12 [Example 44]
IC50 (Mtb Lpd): 0.13 µM
Human Liver Microsome Stability [1]: -2 µL/min/mg

CCN(CC(=O)NC1=CC(=O)C(C)C=C1)S(=O)(=O)c1cc(C)cc2cn[nH]c12 (stereo not drawn) [Example 45]
IC50 (Mtb Lpd): 0.0268 µM
Human Liver Microsome Stability [1]: 39 µL/min/mg

Cc1cc(S(=O)(=O)N(C)CC(=O)Nc2ccn3cccc3c2)c2[nH]ncc2c1 [Example 46, 2-((N,5-dimethyl-1H-indazole)-7-sulfonamido)-N-(imidazo[1,5-a]pyridin-7-yl)acetamide]
IC50 (Mtb Lpd): 0.0067 µM
Human Liver Microsome Stability [1]: 4 µL/min/mg

Cc1cc(S(=O)(=O)N(CC(=O)NC2=CC(=O)C(C)C=C2)C(C)C)c2[nH]ncc2c1 (stereo not drawn) [Example 47]
IC50 (Mtb Lpd): 0.434 µM
Human Liver Microsome Stability [1]: -9 µL/min/mg

Cc1cc(S(=O)(=O)N(C)CC(=O)Nc2ccc3nccn3c2)c2n[nH]cc2c1 [Example 48]
IC50 (Mtb Lpd): 0.0421 µM
Human Liver Microsome Stability [1]: 36 µL/min/mg

Cc1cc(S(=O)(=O)N(C)CC(=O)NCc2ccccc2)c2n[nH]cc2c1 [Example 49]
IC50 (Mtb Lpd): 0.031 µM
Human Liver Microsome Stability [1]: 43 µL/min/mg

Cc1cc(S(=O)(=O)N(C)CC(=O)NC2COC2)c2n[nH]cc2c1 [Example 50]
IC50 (Mtb Lpd): 0.0738 µM
Human Liver Microsome Stability [1]: 8 µL/min/mg

COc1ccc(CNC(=O)CN(C)S(=O)(=O)c2cc(C)cc3c[nH]nc23)cc1 [Example 51]
IC50 (Mtb Lpd): 0.049 µM
Human Liver Microsome Stability [1]: 70 µL/min/mg

Cc1cc(S(=O)(=O)N(C)CC(=O)Nc2ccc3ncccc3c2)c2n[nH]cc2c1 [Example 52]
IC50 (Mtb Lpd): 0.0218 µM
Human Liver Microsome Stability [1]: 113 µL/min/mg

Cc1cc(S(=O)(=O)N(C)CC(=O)Nc2ccc3cnccc3c2)c2n[nH]cc2c1 [Example 57]
IC50 (Mtb Lpd): 0.0328 µM
Human Liver Microsome Stability [1]: 59 µL/min/mg

Cc1cc(S(=O)(=O)N(C)CC(=O)Nc2ccc3cccnc3c2)c2n[nH]cc2c1 [Example 61]
IC50 (Mtb Lpd): 0.0229 µM
Human Liver Microsome Stability [1]: 122 µL/min/mg

Cc1cc(S(=O)(=O)N(C)CC(=O)Nc2ccc3ccncc3c2)c2n[nH]cc2c1 [Example 63]
IC50 (Mtb Lpd): 0.0321 µM
Human Liver Microsome Stability [1]: 63 µL/min/mg

Cc1cc(S(=O)(=O)N2CC[C@H]2C(=O)Nc2ccc3ccncc3c2)c2[nH]ncc2c1 [Example 71]
IC50 (Mtb Lpd): 0.0513 µM
Human Liver Microsome Stability [1]: 132 µL/min/mg

COc1ccc(NC(=O)[C@@H]2CCN2S(=O)(=O)c2cc(C)cc3cn[nH]c23)cc1Cl [Example 74]
IC50 (Mtb Lpd): 0.0488 µM
Human Liver Microsome Stability [1]: 325 µL/min/mg

Cc1cc(S(=O)(=O)N(C)CC(=O)Nc2nc3ccccc3o2)c2n[nH]cc2c1 [Example 76]
IC50 (Mtb Lpd): 0.0994 µM
Human Liver Microsome Stability [1]: 274 µL/min/mg

Cc1cc(S(=O)(=O)N2CC[C@H]2C(=O)Nc2ccc3cnccc3c2)c2[nH]ncc2c1 [Example 85]
IC50 (Mtb Lpd): 0.023 µM
Human Liver Microsome Stability [1]: 93 µL/min/mg

Cc1cc(S(=O)(=O)N2CC[C@H]2C(=O)Nc2ccc3ncccc3c2)c2[nH]ncc2c1 [Example 87]
IC50 (Mtb Lpd): 0.035 µM
Human Liver Microsome Stability [1]: 111 µL/min/mg

Cc1cc(S(=O)(=O)N(C)CC(=O)Nc2ccc3c(c2)OCCN3C2COC2)c2[nH]ncc2c1 [Example 94]
IC50 (Mtb Lpd): 0.0275 µM
Human Liver Microsome Stability [1]: 45 µL/min/mg

Cc1cc(S(=O)(=O)N(C)CC(=O)Nc2ccn(C)c(=O)c2)c2n[nH]c(F)c2c1 [Example 95]
IC50 (Mtb Lpd): 0.0513 µM
Human Liver Microsome Stability [1]: 21 µL/min/mg

Cc1cc(S(=O)(=O)N2CCC(C(=O)Nc3ccn(C)c(=O)c3)C2)c2[nH]ncc2c1 (stereo not drawn) [Example 97]
IC50 (Mtb Lpd): 0.0419 µM
Human Liver Microsome Stability [1]: -5 µL/min/mg

Cc1cc(S(=O)(=O)N(C)CC(=O)Nc2ccn(C3CC3)c(=O)c2)c2[nH]ncc2c1 [Example 98]
IC50 (Mtb Lpd): 0.093 µM
Human Liver Microsome Stability [1]: 28 µL/min/mg

Cc1cc(S(=O)(=O)N(C)CC(=O)Nc2ccn(C3COC3)c(=O)c2)c2[nH]ncc2c1 [Example 99]
IC50 (Mtb Lpd): 0.056 µM
Human Liver Microsome Stability [1]: 17 µL/min/mg

Cc1cc(S(=O)(=O)N(C)CC(=O)Nc2ccn(C3CCOCC3)c(=O)c2)c2[nH]ncc2c1 [Example 100]
IC50 (Mtb Lpd): 0.05 µM
Human Liver Microsome Stability [1]: 6 µL/min/mg

Cc1cc(S(=O)(=O)N(C)CC(=O)Nc2ccn3cnnc3c2)c2n[nH]cc2c1 [Example 102]
IC50 (Mtb Lpd): 0.042 µM
Human Liver Microsome Stability [1]: 31 µL/min/mg

Cc1cc(S(=O)(=O)N(C)CC(=O)Nc2ccc3c(c2)OCCN3C(C)(C)CO)c2[nH]ncc2c1 [Example 105]
IC50 (Mtb Lpd): 0.027 µM
Human Liver Microsome Stability [1]: 56 µL/min/mg

Cc1cc(S(=O)(=O)N2CC[C@H]2C(=O)Nc2ccc3cccnc3c2)c2[nH]ncc2c1 [Example 106]
IC50 (Mtb Lpd): 0.019 µM
Human Liver Microsome Stability [1]: 236 µL/min/mg

Cc1cc(S(=O)(=O)N(C)CC(=O)Nc2ccc3c(c2)OCCN3C2CCOCC2)c2n[nH]c(F)c2c1 [Example 121]
IC50 (Mtb Lpd): 0.0253 µM
Human Liver Microsome Stability [1]: 125 µL/min/mg

Cc1cc(S(=O)(=O)N2CC[C@@H](C(=O)Nc3ccc4c(c3)OCCN4C3CCOCC3)C2)c2n[nH]cc2c1 [Example 122]
IC50 (Mtb Lpd): 0.0304 µM
Human Liver Microsome Stability [1]: 26 µL/min/mg

Cc1cc(S(=O)(=O)N2CC[C@@H](C(=O)Nc3ccc4c(c3)OCCN4C3COC3)C2)c2[nH]ncc2c1 [Example 123]
IC50 (Mtb Lpd): 0.0286 µM
Human Liver Microsome Stability [1]: 23 µL/min/mg

Cc1cc(S(=O)(=O)N(C)CC(=O)Nc2ccn(C)c(=O)c2)c2[nH]c(C#N)cc2c1 [Example 124, 2-((2-cyano-N,5-dimethyl-1H-indole)-7-sulfonamido)-N-(1-methyl-2-oxo-1,2-dihydropyridin-4-yl)acetamide]
IC50 (Mtb Lpd): 0.0796 µM
Human Liver Microsome Stability [1]: 51 µL/min/mg

Cc1cc(S(=O)(=O)N(C)CC(=O)NCc2cn(-c3ccccc3)nn2)c2[nH]ncc2c1 [Example 125, 2-((N,5-dimethyl-1H-indazole)-7-sulfonamido)-N-((1-phenyl-1H-1,2,3-triazol-4-yl)methyl)acetamide]
IC50 (Mtb Lpd): 0.048 µM
Human Liver Microsome Stability [1]: 520 µL/min/mg

Cc1cc(S(=O)(=O)N2CC[C@H]2C(=O)NC2CCN(C)CC2)c2[nH]ncc2c1 [Example 129]
IC50 (Mtb Lpd): 6.56 µM
Human Liver Microsome Stability [1]: 418 µL/min/mg

Cc1cc(S(=O)(=O)N(C)CC(=O)Nc2ccc3c(c2)OCCN3C2COC2)c2n[nH]c(F)c2c1 [Example 140]
IC50 (Mtb Lpd): 0.0278 µM
Human Liver Microsome Stability [1]: 66 µL/min/mg

Cc1cc(S(=O)(=O)N2CC[C@H]2C(=O)Nc2ccc3c(c2)OCCN3C2COC2)c2n[nH]cc2c1 [Example 143]
IC50 (Mtb Lpd): 0.0362 µM
Human Liver Microsome Stability [1]: 84 µL/min/mg

Cc1cc(S(=O)(=O)N2CC[C@H]2C(=O)Nc2ccc3c(c2)OCCN3C2CCOCC2)c2n[nH]cc2c1 [Example 144]
IC50 (Mtb Lpd): 0.0379 µM
Human Liver Microsome Stability [1]: 166 µL/min/mg
